In patent US5495032A, “Process for producing 7-(substituted)-8-(substituted-9-[(substituted glycyl)amido]-6-demethyl-6-deoxytetracyclines” (priority 1994, dated 1996):
Converted amounts (≈) assume the structure as drawn. Structures can show the parent of a compound that is named as a salt. Where two headings read alike, the source gives them in different places.

Legend:
Type in all cases: cell-based
S. aureus IVES 1 983 = assay: MIC, agar dilution method; conditions: Staphylococcus aureus
S. aureus UBMS 90-3 = assay: MIC, agar dilution method; conditions: Staphylococcus aureus, UBMS903, 18 h
Enterococcus 12201 = assay: MIC, agar dilution method; conditions: 18 hours at 35° C.
E. coli UBMS 90-4 Tet M = assay: microbe, parasite or virus in culture; conditions: Escherichia coli, UBMS904TETM, 18 h, 18 hours at 35° C.
E. faecalis ATCC 29212 = assay: MIC, agar dilution method; conditions: Enterococcus faecalis
S. aureus ROSE (MP) = assay: MIC, agar dilution method; conditions: Staphylococcus aureus, 18 hours at 35° C.
E. coli #311 (MP) = assay: MIC, agar dilution method; conditions: Escherichia coli, 18 hours at 35° C., read-out: MIC
S. aureus UBMS 88-4 = assay: MIC, agar dilution method; conditions: Staphylococcus aureus, UBMS884, 18 hours at 35° C., read-out: MIC
[1] = system: E. coli UBMS 89-2 Tet sens; assay: MIC, agar dilution method; conditions: Escherichia coli, UBMS892TETSENS, 18 h, 18 hours at 35° C., read-out: MIC
[2] = system: S. aureus UBMS 88-5 Tet M; assay: microbe, parasite or virus in culture; conditions: Staphylococcus aureus, UBMS885TETM, 18 h
E. coli PRP1 Tet A = assay: microbe, parasite or virus in culture; conditions: Escherichia coli, PRP1TETA, 18 h, 18 hours at 35° C.
E. coli J3272 Tet C = assay: microbe, parasite or virus in culture; conditions: Escherichia coli, J3272TETC, 18 h
E. coli BAJ9003 IMP MUT = assay: microbe, parasite or virus in culture; conditions: Escherichia coli, BAJ9003IMPMUT, 18 h, 18 hours at 35° C.
[3] = system: S. aureus UBMS 88-7 Tet K; assay: microbe, parasite or virus in culture; conditions: Staphylococcus aureus, UBMS887TETK, 18 h, 18 hours at 35° C.
[4] = system: S. aureus UBMS 90-2 Tet M; assay: microbe, parasite or virus in culture; conditions: Staphylococcus aureus, UBMS902TETM, 18 h, 18 hours at 35° C.
[5] = system: X. maltophilia NEMC 87210; assay: MIC, agar dilution method; conditions: Stenotrophomonas maltophilia
E. coli J2175 = assay: MIC, agar dilution method; conditions: Escherichia coli, 18 hours at 35° C., read-out: MIC
E. coli J3272 Tet D = assay: microbe, parasite or virus in culture; conditions: Escherichia coli, J3272TETD, 18 h
[6] = system: S. aureus UBMS 90-1 Tet M; assay: microbe, parasite or virus in culture; conditions: Staphylococcus aureus, UBMS901TETM, 18 h, 18 hours at 35° C.
[7] = system: S. hemolyticus AVHAH 88-3; assay: MIC, agar dilution method; conditions: Streptococcus pyogenes
[8] = system: E. coli MC 4100 Tet sens.; assay: MIC, agar dilution method; conditions: Escherichia coli, 18 hours at 35° C., read-out: MIC
E. coli UBMS 88-1 Tet B = assay: microbe, parasite or virus in culture; conditions: Escherichia coli, UBMS881TETB, 18 h, 18 hours at 35° C.
E. coli UBMS 90-5 sens = assay: MIC, agar dilution method; conditions: Escherichia coli, UBMS905SENS, 18 hours at 35° C., read-out: MIC
S. aureus IVES 2943 = assay: MIC, agar dilution method; conditions: Staphylococcus aureus
S. aureus SMITH (MP) = assay: MIC, agar dilution method; conditions: Staphylococcus aureus, 18 hours at 35° C.
S. aureus NEMC 8769 = assay: MIC, agar dilution method; conditions: Staphylococcus aureus
[9] = system: Ps. acruginosa ATCC 27853; assay: MIC, agar dilution method
E. coli UBMS 89-1 Tet M = assay: microbe, parasite or virus in culture; conditions: Escherichia coli, UBMS891TETM, 18 h, 18 hours at 35° C.
S. mariescens FPOR 8733 = assay: MIC, agar dilution method; conditions: 18 h, 18 hours at 35° C.
E. coli ATCC 25922 = assay: MIC, agar dilution method; conditions: Escherichia coli, ATCC25922, 18 hours at 35° C., read-out: MIC
[10] = system: E. coli MC 4100 TNIOC Tet B; assay: microbe, parasite or virus in culture; conditions: Escherichia coli, 18 h, 18 hours at 35° C.
S. aureus ATCC 29213 = assay: MIC, agar dilution method; conditions: Staphylococcus aureus
[11] = ATCC29212, 18 h, 18 hours at 35° C.
[12] = NEMC87210, 18 hours at 35° C., read-out: MIC
[13] = AVHAH883, 18 hours at 35° C., read-out: MIC
[14] = Ps. acruginosa ATCC 27853, 18 hours at 35° C., read-out: MIC
[15] = IVES1983, S. aureus IVES 1 983, 18 hours at 35° C., read-out: MIC
[16] = NEMC87210, 18 h, 18 hours at 35° C.
[17] = IVES2943, S. aureus IVES 2943, 18 hours at 35° C., read-out: MIC
[18] = NEMC8769, S. aureus NEMC 8769, 18 hours at 35° C., read-out: MIC
[19] = ATCC29213, 18 hours at 35° C., read-out: MIC
[20] = S. aureus UBMS 88-5 Tet M, 18 hours at 35° C.
[21] = AVHAH883, 18 h, 18 hours at 35° C.

Structure (SMILES) | MIC (E. coli UBMS 90-4 Tet M) | MIC (E. faecalis ATCC 29212; [11]) | MIC (E. coli #311 (MP)) | MIC (S. aureus UBMS 88-4) | MIC [1] | MIC [2] | MIC (E. coli PRP1 Tet A) | MIC (E. coli J3272 Tet C) | MIC (E. coli BAJ9003 IMP MUT) | MIC [3] | MIC [4] | MIC (E. coli J2175) | MIC (E. coli J3272 Tet D) | MIC [6] | MIC [7, 13] | MIC [8] | MIC (E. coli UBMS 88-1 Tet B) | MIC (E. coli UBMS 89-1 Tet M) | MIC (S. mariescens FPOR 8733) | MIC [10] | also measured
CN(C)CC(=O)Nc1c(O)c2c(c(N(C)C)c1Cl)CC1CC3[C@H](N(C)C)C(O)=C(C(N)=O)C(=O)[C@@]3(O)C(O)=C1C2=O (stereo partly drawn) [B, [4S-(4α,12aα)]-8-Chloro-4,7-(dimethylamino)-9-[[(dimethylamino)acetyl]amino]-1,4,4a,5,5a,6,11,12a-octahydro-3,10,12,12a-tetrahydroxy-1,11-dioxo-2-naphthacenecarboxamide] | > 32 µg/mL | 0.12 µg/mL (≈ 0.203 µM) | 4 µg/mL (≈ 6.76 µM) | 0.25 µg/mL (≈ 0.422 µM) | 16 µg/mL (≈ 27 µM) | 0.25 µg/mL (≈ 0.422 µM) | 16 µg/mL (≈ 27 µM) | 16 µg/mL (≈ 27 µM) | 0.12 µg/mL (≈ 0.203 µM) | 2 µg/mL (≈ 3.38 µM) | 0.25 µg/mL (≈ 0.422 µM) | 32 µg/mL (≈ 54 µM) | 32 µg/mL (≈ 54 µM) | 0.5 µg/mL (≈ 0.845 µM) | 0.5 µg/mL (≈ 0.845 µM) | 2 µg/mL (≈ 3.38 µM) | > 32 µg/mL | 32 µg/mL (≈ 54 µM) | > 32 µg/mL | > 32 µg/mL | MIC (S. aureus IVES 1 983; IVES1983, 18 h): 4 µg/mL (≈ 6.76 µM); MIC (S. aureus UBMS 90-3): 0.12 µg/mL (≈ 0.203 µM); MIC (Enterococcus 12201; Enterococcus, 12201, 18 h): 0.12 µg/mL (≈ 0.203 µM); MIC (S. aureus ROSE (MP); 18 h): 8 µg/mL (≈ 13.5 µM); MIC [5, 12]: 0.5 µg/mL (≈ 0.845 µM); MIC (E. coli UBMS 90-5 sens): 32 µg/mL (≈ 54 µM); MIC (S. aureus IVES 2943; IVES2943, 18 h): 4 µg/mL (≈ 6.76 µM); MIC (S. aureus SMITH (MP); 18 h): 0.12 µg/mL (≈ 0.203 µM); MIC (S. aureus NEMC 8769; NEMC8769, 18 h): 0.12 µg/mL (≈ 0.203 µM); MIC [9, 14]: > 32 µg/mL; MIC (E. coli ATCC 25922): 8 µg/mL (≈ 13.5 µM); MIC (S. aureus ATCC 29213; ATCC29213, 18 h, 18 hours at 35° C.): 0.25 µg/mL (≈ 0.422 µM)
CCCCNCC(=O)Nc1c(Cl)cc2c(c1O)C(=O)C1=C(O)[C@]3(O)C(=O)C(C(N)=O)=C(O)[C@@H](N(C)C)C3CC1C2 (stereo partly drawn) [D, [4S-(4α,12aα)]-9-[[(Butylamino)acetyl]amino]-8-chloro-4-(dimethylamino) -1,4,4a,5,5a,6,11,12a-octahydro-3,10,12,12a-tetrahydroxy-1,11-dioxo-2-naphthacenecarboxamide dihydrochloride] | 1 µg/mL | 0.25 µg/mL | 1 µg/mL | 0.5 µg/mL | 2 µg/mL | 1 µg/mL | 4 µg/mL | 2 µg/mL | 0.25 µg/mL | 8 µg/mL | 0.5 µg/mL | 1 µg/mL | 1 µg/mL | 2 µg/mL | 8 µg/mL | 0.25 µg/mL | 2 µg/mL | 0.5 µg/mL | 16 µg/mL | 1 µg/mL | MIC (S. aureus IVES 1 983; [15]): 8 µg/mL; MIC (Enterococcus 12201; read-out: MIC): 0.5 µg/mL; MIC (S. aureus ROSE (MP); read-out: MIC): 16 µg/mL; MIC [5, 16]: 4 µg/mL; MIC (E. coli UBMS 90-5 sens): 1 µg/mL; MIC (S. aureus IVES 2943; [17]): 16 µg/mL; MIC (S. aureus SMITH (MP); read-out: MIC): 0.5 µg/mL; MIC (S. aureus NEMC 8769; [18]): 0.5 µg/mL; MIC ([9]; 18 h): > 32 µg/mL; MIC (E. coli ATCC 25922): 1 µg/mL; MIC (S. aureus ATCC 29213; [19]): 0.5 µg/mL
CN(C)[C@@H]1C(O)=C(C(N)=O)C(=O)[C@@]2(O)C(O)=C3C(=O)c4c(cc(Cl)c(NC(=O)CCl)c4O)CC3CC12 (stereo partly drawn) [K, [4S-(4α,12aα)]-9-[(Chloroacetyl)amino]-8-chloro-4-(dimethylamino)-1,4,4a,5,5a ,6,11,12a-octahydro-3,10,12,12a-tetrahydroxy-1,11-dioxo-2-naphthacenecarboxamide hydrochloride] | > 32 µg/mL | – | 16 µg/mL | 0.5 µg/mL | > 32 µg/mL | – | > 32 µg/mL | > 32 µg/mL | 1 µg/mL | 4 µg/mL | 0.5 µg/mL | > 32 µg/mL | > 32 µg/mL | 1 µg/mL | 4 µg/mL | 8 µg/mL | > 32 µg/mL | 8 µg/mL | > 32 µg/mL | > 32 µg/mL | MIC (S. aureus IVES 1 983; [15]): 4 µg/mL; MIC (Enterococcus 12201; read-out: MIC): 2 µg/mL; MIC (E. faecalis ATCC 29212; ATCC29212, 18 hours at 35° C., read-out: MIC): 0.5 µg/mL; MIC (S. aureus ROSE (MP); read-out: MIC): 4 µg/mL; MIC [2, 20]: 1 µg/mL; MIC [5, 12]: 8 µg/mL; MIC (E. coli UBMS 90-5 sens): > 32 µg/mL; MIC (S. aureus IVES 2943; [17]): 4 µg/mL; MIC (S. aureus SMITH (MP); read-out: MIC): 0.5 µg/mL; MIC (S. aureus NEMC 8769; [18]): 0.5 µg/mL; MIC [9, 14]: > 32 µg/mL; MIC (E. coli ATCC 25922): 16 µg/mL; MIC (S. aureus ATCC 29213; [19]): 0.5 µg/mL
CN(C)c1ccc(O)c2c1C[C@H]1C[C@H]3[C@H](N(C)C)C(O)=C(C(N)=O)C(=O)[C@@]3(O)C(O)=C1C2=O [L, Minocycline, reference compound] | > 32 µg/mL | – | – | – | – | 8 µg/mL (≈ 17.5 µM) | – | – | – | 0.25 µg/mL (≈ 0.546 µM) | – | – | – | 8 µg/mL (≈ 17.5 µM) | – | – | – | – | – | – | MIC (S. aureus ROSE (MP); read-out: MIC): 1 µg/mL (≈ 2.19 µM); MIC [5, 16]: 0.25 µg/mL (≈ 0.546 µM); MIC [7, 21]: 0.25 µg/mL (≈ 0.546 µM)
CN(C)[C@@H]1C(O)=C(C(N)=O)C(=O)[C@@]2(O)C(O)=C3C(=O)c4c(O)cccc4[C@@](C)(O)[C@H]3C[C@@H]12 [M, Tetracycline] | 32 µg/mL (≈ 72 µM) | 16 µg/mL (≈ 36 µM) | – | – | 2 µg/mL (≈ 4.5 µM) | – | 32 µg/mL (≈ 72 µM) | > 32 µg/mL | – | > 32 µg/mL | 32 µg/mL (≈ 72 µM) | 2 µg/mL (≈ 4.5 µM) | > 32 µg/mL | > 32 µg/mL | – | – | > 32 µg/mL | 32 µg/mL (≈ 72 µM) | > 32 µg/mL | > 32 µg/mL | MIC (S. aureus IVES 1 983; IVES1983, 18 h): > 32 µg/mL; MIC (Enterococcus 12201; Enterococcus, 12201, 18 h): > 32 µg/mL; MIC (S. aureus ROSE (MP); 18 h): > 32 µg/mL; MIC [2, 20]: > 32 µg/mL; MIC [5, 16]: 8 µg/mL (≈ 18 µM); MIC [7, 21]: 1 µg/mL (≈ 2.25 µM); MIC (S. aureus IVES 2943; IVES2943, 18 h): > 32 µg/mL; MIC ([9]; 18 h): 16 µg/mL (≈ 36 µM)
